One assay concerns OPN. Briefly: Western blot of OPN and its MMP-cleaved fragments in macrophages. In kind it is cell-based, mouse. Conditions: Western blot band density (FIG. 16I-16J). The protocol:
MΦ^BM were lifted from each cell by 2 mM EDTA-PBS, collected in an Eppendorf tube, and centrifuged. Cell pellets were lysed in RIPA buffer (Thermo Scientific) and supplemented with a cocktail of protease inhibitors (Thermo Scientific). Protein concentration was determined using a BCA Protein Assay Kit (Thermo Scientific). Aliquots of protein samples were electrophoretically separated using 4-12% Bis-Tris gels (Invitrogen), then transferred to nitrocellulose membranes, blocked in Tris-buffered saline (TBS) containing 5% (w/v) non-fat dry milk, and hybridized with appropriate primary antibodies, including rabbit polyclonal OPN (Abcam), goat polyclonal OPN (R&D systems), and Actin (Abcam). Membranes were then incubated with the appropriate HRP-conjugated secondary antibody prior to development with chemiluminescent substrates. Densitometric analysis of blots was conducted using ImageJ software, and each experimental sample was normalized to Actin.
Next, MMP-9 expression and OPN proteolytic fragments were analyzed. […] OPN is a known substrate for MMPs (including MMP-9). A detailed analysis of OPN expression in macrophages was performed using a polyclonal antibody recognizing full-length OPN and its MMP-cleaved fragments, including the 32 kD form. […] Remarkably, the MMP-generated 32kD C-terminus-containing peptide was elevated 12-fold after GA treatment. […]
On the technique in general: In western blotting, separated proteins are transferred to a membrane and probed.

In the next assay the test system is ADtg mice. As to the kind of experiment: Barnes maze behavioral test in AD mice. In kind it is in vivo, mouse. The protocol:
ADtg mice (10 months old) received subcutaneous injections of GA [also known as Cop-1 and Copaxone®; 100 μg in phosphate-buffered saline (PBS)] or PBS alone (control group) twice a week for 1 week and then once a week for 8 weeks. For evaluation of innate immune infiltration to the brain by flow cytometry, 10-month-old ADtg mice received subcutaneous injections of GA (100 mg in PBS) or PBS alone twice a week for 1 week and then once a week for 3 weeks. At the end of the study, all mice were anaesthetized and then perfused with ice-cold PBS with 0.5 mM EDTA, after which their organs were collected and analyzed or fixed in 2.5% paraformaldehyde (Sigma-Aldrich), and cryoprotected with 30% sucrose for further histological analysis.
CD115^+ monocytes from mice donors were isolated as previously reported (Koronyo et al., Brain: a journal of neurology 2015,138:2399-2422). […]
The Barnes maze is a spatial-learning task that allows subjects to use spatial cues to locate a means of escape from a mildly aversive environment (open space with light projection); mice are required to use spatial cues to find an escape location. The mice are assessed for their ability to learn the location of an escape box over the course of 9 days in the Barnes maze apparatus. […]

glatiramer acetate [GA]: the “elevation of MMP-generated 32kD C-terminus-containing OPN peptide” value with OPN is recorded as 12 fold. In addition, the cognition entry in the assay with ADtg mice was “retained cognition”.

These data come from patent US11779600B2, “Methods of treating or preventing alzheimer's disease and associated conditions” (CEDARS-SINAI MEDICAL CENTER, priority 2016, dated 2023).
